The source of these data is US20030060481A1 (priority 1999, published 2003).

For experiment [1], the system named is Wistar, adult, male, rats. Description: Induction of status epilepticus by systemic pilocarpine. The format is in vivo. The following applies: pilocarpine 320 mg/Kg intraperitoneal.
Experiment [2] relates to kainate model of epilepsy. Description: Onset of spontaneous recurrent seizures in the kainate model of epilepsy.

Regarding `CC[C@@H]1C(=O)OC[C@@H]1Cc1cncn1C` [pilocarpine], in experiment [1], the “Latency for the onset of status epilepticus after injection” value is 19 ± 5 min. In the case of `CN1[C@@H]2C[C@@H](OC(=O)[C@H](CO)c3ccccc3)C[C@H]1[C@@H]1O[C@@H]12` [scopolamine], in experiment [2], the “Effect on onset of spontaneous recurrent seizures (in words)” value is “retard or even suppress the onset of spontaneous recurrent seizures”.
